Measurements reported in US20220054465A1, “(PYRIDIN-2-YL)AMINE DERIVATIVES AS TGF-BETA R1 (ALK5) INHIBITORS FOR THE TREATMENT OF CANCER” (Nexys Therapeutics, Inc., priority 2018, published 2022).

How the values were obtained:
HEK-Blue TGFβ cell = experiment: HEK-Blue TGFβ cellular reporter gene assay (SEAP readout); format: cell-based; details: HEK-Blue TGFβ cells stimulated with TGF-β, 22-23 h incubation, SEAP read at 630 nm
Method in brief: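 Cells (2.5×10^5 cells/ml suspension) in DMEM with 0.5% heat-inactivated FBS stimulated with TGF-β (6 ng/ml working solution) plus compound at eight 3-fold dilutions for 22-23 h at 37° C. Supernatant SEAP measured with QUANTI-Blue after 30-40 min, absorbance 630 nm; percent inhibition calculated.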

[1] = Tissue exposure (liver and heart) in Balb/c mouse after PO dosing, general PK protocol; format: in vivo; details: PO (intragastric) 10 mg/Kg, liver and heart tissue 0.5-24 h, LC-MS/MS
Procedure: Comparing AUCliver/AUCheart ratio of selected Examples with clinic compounds Galunisertib and LY3200882. Tissue exposure was measured in Balb/c mouse with PO dosing at 10 mpk. […] See Stauber, et al., J. Clin. Pract., 2014, 4(3), 196.
The Balb/c mice were fasted overnight with free access to drinking water prior to treatment. Compounds were formulated in 0.5% CMC/0.5% Tween 80 with or without 1 eq. of NaOH, and administrated intragastrically at 10 mg/Kg. The liver and heart tissues of mice were collected at time points 0.5, 1, 3, 5, 7, 24 h (2 mice per time point) post dose by first sacrificing the animal by C02 inhalation. After flushing with ice saline and removal of excess water on its surface, the liver and heart tissues were weighed and homogenized in 1:5 volumes (w/v) of water with 20% methanol. Tissue samples were kept at −40˜−20° C. prior to analysis. Concentrations of compounds in the liver and hearts were determined using an established liquid chromatography-tandem mass spectrometry (LC-MS/MS) method. Tissue concentration-time data were processed by linear regression analysis. All pharmacokinetic parameters were calculated using non-compartment model of Pharsight Phoenix 8.0.

[2] = Stauber, et al., J. Clin. Pract., 2014, 4(3), 196; cited from earlier work

CCc1ccc(Oc2ccnc(Nc3cccc(C(C)(C)C(=O)O)c3)c2)c(C)n1 [Example 81, 2-(3-((4-((6-ethyl-2-methylpyridin-3-yl)oxy)pyridin-2-yl)amino)phenyl)-2-methylpropanoic acid]
IC50 (HEK-Blue TGFβ cell): 0.031 µM
AUCliver/AUCheart [1]: 124

Cc1cccc(-c2nn3c(c2-c2ccnc4ccc(C(N)=O)cc24)CCC3)n1 [Galunisertib, galunisertib, reference compound]
AUCliver/AUCheart [1]: 2.9
Cardiac toxicity [2]: limiting factor

Cc1cc(Oc2ccnc(Nc3cccc(CCC(=O)O)c3)c2)c(-c2ccccn2)nc1C [Example 1, 3-(3-((4-((5,6-dimethyl-[2,2′-bipyridin]-3-yl)oxy)pyridin-2-yl)amino)phenyl)propanoic acid]
IC50 (HEK-Blue TGFβ cell): 0.18 µM
AUCliver/AUCheart [1]: 13.2

CC(C)(O)c1cc(Nc2cc(Oc3cn(C4CC4)nc3C3CCOCC3)ccn2)ccn1 [LY3200882, reference compound]
AUCliver/AUCheart [1]: 1.3
Cardiac toxicity [2]: cardiac toxicity was identified as the most relevant

CCc1ccc(Oc2ccnc(Nc3cccc(CCc4nn[nH]n4)c3)c2)c(-c2ccccn2)n1 [Example 175, N-(3-(2-(2H-tetrazol-5-yl)ethyl)phenyl)-4-((6-ethyl-[2,2′-bipyridin]-3-yl)oxy)pyridin-2-amine]
IC50 (HEK-Blue TGFβ cell): 0.044 µM
AUCliver/AUCheart [1]: 183

Cc1cc(Oc2ccnc(Nc3cccc(Cc4nnn[nH]4)c3)c2)c(-c2ccccn2)nc1C [Example 16, N-(3-((1H-tetrazol-5-yl)methyl)phenyl)-4-((5,6-dimethyl-[2,2′-bipyridin]-3-yl)oxy)pyridin-2-amine]
IC50 (HEK-Blue TGFβ cell): 0.39 µM
AUCliver/AUCheart [1]: 142

CCc1ccc(Oc2ccnc(Nc3cccc(C(C)(C)C(=O)O)c3)c2)c(-c2ccccc2)n1 [Example 104]
IC50 (HEK-Blue TGFβ cell): 0.022 µM
AUCliver/AUCheart [1]: 27.8

Cc1ccc(Oc2ccnc(Nc3cccc(CCc4nn[nH]n4)c3)c2)c(C)n1 [Example 44, N-(3-(2-(2H-tetrazol-5-yl)ethyl)phenyl)-4-((2,6-dimethylpyridin-3-yl)oxy)pyridin-2-amine]
IC50 (HEK-Blue TGFβ cell): 0.12 µM
AUCliver/AUCheart [1]: 29.9
